Reference: patent US8067461B2, “3-acyl coumarins, thiochromones and quinolones and therapeutic uses thereof” (Temple University-Of The Commonwealth System of Higher …, priority 2005, dated 2011)
Read-outs that look alike come from different tables or passages of the source.

Experiments:
[1] = biological target: CDK4/CyclinD1 (Homo sapiens, UniProt P11802); experiment: In vitro kinase assay CDK4/CyclinD1, 32P incorporation into GST-Rb
[2] = biological target: T1, CDK1/CyclinB (Homo sapiens, UniProt P06493); experiment: In vitro kinase assay CDK1/CyclinB, 32P incorporation into Histone H1; assay type: biochemical; settings: recombinant human enzyme complex, average of two independent experiments in triplicate
T1 construct: purchased Upstate USA, Charlottesville, Va

[3] = system: DU145 Cells; experiment: Cytotoxicity on DU145 tumor cells, viable cells by Trypan blue exclusion; assay type: cell-based, human; settings: DU145 prostate cell line, 96 h continuous treatment, five concentrations (1-100 μM range)
Procedure: The effect of compounds according to Formula I on the growth of human tumor cells in culture was evaluated using the androgen receptor negative prostate cell line DU145. All cell cultures were maintained at 37° C. in a humidified atmosphere of 5% CO2.
Cells were treated with compounds according to Formula I at five different concentrations (1-100 μM range) for each compound. The dose response of each cell line was established by determining the number of viable cells after 96 h of continuous treatment against each of the different test concentrations of each compound. The determination of viable cells was done by the by the Trypan blue exclusion method. An IC50 (μM) for each compound was determined.

[4] = biological target: T2, CDK2/CylinE (Homo sapiens, UniProt P24941); experiment: In vitro kinase assay CDK2/CylinE, 32P incorporation into Histone H1; assay type: biochemical; settings: recombinant human enzyme complex, average of two independent experiments in triplicate
T2 construct: purchased Upstate USA, Charlottesville, Va

[5] = biological target: T3, CDK9/CyclinT1 (Homo sapiens, UniProt P50750); experiment: In vitro kinase assay CDK9/CyclinT1, 32P incorporation into RNA Polymerase II carboxy terminal domain; assay type: biochemical; settings: recombinant human enzyme complex, average of two independent experiments in triplicate
T3 construct: purchased Upstate USA, Charlottesville, Va
T3 sequence (P50750 whole entry, the tested form may be a part): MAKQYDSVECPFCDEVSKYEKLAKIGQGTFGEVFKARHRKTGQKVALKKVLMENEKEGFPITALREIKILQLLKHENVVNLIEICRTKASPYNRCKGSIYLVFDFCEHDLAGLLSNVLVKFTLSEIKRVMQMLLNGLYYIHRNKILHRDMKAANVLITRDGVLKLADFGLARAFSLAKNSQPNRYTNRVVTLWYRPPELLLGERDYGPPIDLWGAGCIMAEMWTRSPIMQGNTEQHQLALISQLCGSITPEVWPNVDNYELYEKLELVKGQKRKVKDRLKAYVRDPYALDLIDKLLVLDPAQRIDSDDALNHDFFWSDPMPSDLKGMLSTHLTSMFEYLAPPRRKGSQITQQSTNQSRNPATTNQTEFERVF
T3 sequence (O60563 whole entry partner, the tested form may be a part): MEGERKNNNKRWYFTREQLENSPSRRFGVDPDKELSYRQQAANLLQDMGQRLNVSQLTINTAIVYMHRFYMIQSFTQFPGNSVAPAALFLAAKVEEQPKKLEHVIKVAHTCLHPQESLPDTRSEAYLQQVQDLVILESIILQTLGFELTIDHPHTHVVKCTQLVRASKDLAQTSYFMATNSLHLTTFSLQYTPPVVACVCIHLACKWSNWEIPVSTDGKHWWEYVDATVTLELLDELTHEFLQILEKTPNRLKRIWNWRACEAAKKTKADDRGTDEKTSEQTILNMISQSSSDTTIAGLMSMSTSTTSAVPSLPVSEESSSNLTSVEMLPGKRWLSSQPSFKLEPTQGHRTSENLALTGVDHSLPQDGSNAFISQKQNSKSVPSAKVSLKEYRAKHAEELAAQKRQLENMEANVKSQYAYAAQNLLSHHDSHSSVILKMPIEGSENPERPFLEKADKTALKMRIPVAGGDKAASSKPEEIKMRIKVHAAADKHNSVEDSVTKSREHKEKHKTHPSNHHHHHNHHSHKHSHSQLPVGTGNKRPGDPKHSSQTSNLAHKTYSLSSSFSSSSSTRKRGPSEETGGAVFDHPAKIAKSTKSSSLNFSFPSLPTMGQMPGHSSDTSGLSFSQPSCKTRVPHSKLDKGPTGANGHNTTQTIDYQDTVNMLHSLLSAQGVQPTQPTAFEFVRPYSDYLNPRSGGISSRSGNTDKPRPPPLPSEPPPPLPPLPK

T1 sequence (P06493 whole entry): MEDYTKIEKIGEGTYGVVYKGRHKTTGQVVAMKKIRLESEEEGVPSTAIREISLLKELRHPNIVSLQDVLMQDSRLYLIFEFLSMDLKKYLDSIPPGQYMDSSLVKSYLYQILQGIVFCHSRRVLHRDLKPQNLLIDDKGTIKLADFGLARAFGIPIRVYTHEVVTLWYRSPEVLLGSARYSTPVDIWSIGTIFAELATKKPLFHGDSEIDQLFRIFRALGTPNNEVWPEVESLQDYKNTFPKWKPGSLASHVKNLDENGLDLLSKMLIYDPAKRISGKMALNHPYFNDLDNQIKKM
T1 sequence (P14635 whole entry partner): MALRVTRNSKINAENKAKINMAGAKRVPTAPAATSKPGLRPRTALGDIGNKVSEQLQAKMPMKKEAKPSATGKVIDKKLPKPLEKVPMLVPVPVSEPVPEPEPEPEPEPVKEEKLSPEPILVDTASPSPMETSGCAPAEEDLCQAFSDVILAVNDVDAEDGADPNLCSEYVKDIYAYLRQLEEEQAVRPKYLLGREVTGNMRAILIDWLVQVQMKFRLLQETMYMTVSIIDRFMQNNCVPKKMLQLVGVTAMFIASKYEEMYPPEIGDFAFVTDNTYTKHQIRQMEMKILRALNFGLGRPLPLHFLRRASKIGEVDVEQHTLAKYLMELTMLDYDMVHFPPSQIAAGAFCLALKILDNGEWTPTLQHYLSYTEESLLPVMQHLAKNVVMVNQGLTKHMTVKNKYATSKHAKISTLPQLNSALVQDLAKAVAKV
Sequence of CDK4/CyclinD1 (P11802 whole entry): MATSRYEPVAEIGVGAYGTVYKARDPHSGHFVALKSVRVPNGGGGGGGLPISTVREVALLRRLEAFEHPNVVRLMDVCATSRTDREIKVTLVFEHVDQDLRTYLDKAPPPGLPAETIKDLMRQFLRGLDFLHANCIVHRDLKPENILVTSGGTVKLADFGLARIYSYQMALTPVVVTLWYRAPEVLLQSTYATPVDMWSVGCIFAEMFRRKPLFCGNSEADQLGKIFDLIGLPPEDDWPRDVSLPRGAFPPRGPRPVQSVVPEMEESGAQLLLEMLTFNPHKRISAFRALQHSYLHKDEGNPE
Sequence of CDK4/CyclinD1 (P24385 whole entry partner): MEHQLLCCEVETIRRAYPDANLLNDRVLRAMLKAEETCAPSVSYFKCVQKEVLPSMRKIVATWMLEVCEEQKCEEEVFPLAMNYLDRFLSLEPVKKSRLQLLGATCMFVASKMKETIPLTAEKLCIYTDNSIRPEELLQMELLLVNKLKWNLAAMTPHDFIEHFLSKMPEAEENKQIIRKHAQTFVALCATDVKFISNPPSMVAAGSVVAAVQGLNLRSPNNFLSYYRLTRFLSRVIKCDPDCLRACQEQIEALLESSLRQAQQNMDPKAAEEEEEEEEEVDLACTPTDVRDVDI

Row | SMILES | IC50 [1] [µM] | IC50 [2] [µM] | IC50 [4] [µM] | IC50 [5] [µM] | IC50 ([3]; Homo sapiens, DU-145) [µM] | IC50 ([1]; read-out: CDK4 IC50, recombinant human enzyme complex, average of two independent experiments in triplicate) [µM] | IC50 [3] [µM]
1 | COc1cc(OC)c2cc(C(=O)c3cc4c(OC)cc(OC)cc4oc3=O)c(=O)oc2c1 [Example 3, 5,7-dimethoxy-3-[(5,7-dimethoxy-2-oxochromen-3-yl)carbonyl]chromen-2-one] | > 10 | > 10 | – | – | > 100 | – | –
2 | O=C(c1cc2ccccc2oc1=O)c1cc2ccccc2oc1=O [Example 5] | > 10 | > 10 | – | – | > 100 | – | –
3 | O=C(c1cc2cc(I)ccc2oc1=O)c1cc2cc(I)ccc2oc1=O [Example 8, 6-iodo-3-[(6-iodo-2-oxochromen-3-yl)carbonyl]chromen-2-one] | > 10 | > 10 | – | – | > 100 | – | –
4 | O=C(c1cc2cc([N+](=O)[O-])ccc2oc1=O)c1cc2cc([N+](=O)[O-])ccc2oc1=O [Example 9, 6-nitro-3-[(6-nitro-2-oxochromen-3-yl)carbonyl]chromen-2-one] | > 10 | > 10 | 1.54 | 0.5 | 1 to 10 | – | –
5 | COc1cc([N+](=O)[O-])cc2cc(C(=O)c3cc4cc([N+](=O)[O-])cc(OC)c4oc3=O)c(=O)oc12 [Example 10, 8-methoxy-3-[(8-methoxy-6-nitro-2-oxo-chromen-3-yl)carbonyl]-6-nitro-chromen-2-one] | > 10 | > 10 | 0.549 | 0.5 | 10 to 25 | – | –
6 | O=C(c1cc2ccc(O)cc2oc1=O)c1cc2ccc(O)cc2oc1=O [Example 11, 7-hydroxy-3-[(7-hydroxy-2-oxo-chromen-3-yl)carbonyl]chromen-2-one] | > 10 | > 10 | – | – | > 100 | – | –
7 | O=C(c1cc2cc(F)cc(F)c2oc1=O)c1cc2cc(F)cc(F)c2oc1=O [Example 14, 6,8-difluoro-3-[(6,8-difluoro-2-oxochromen-3-yl)carbonyl]chromen-2-one] | > 10 | > 10 | – | – | 10 to 25 | – | –
8 | COc1cc(Br)cc2cc(C(=O)c3cc4cc(Br)cc(OC)c4oc3=O)c(=O)oc12 [Example 16, 6-bromo-8-methoxy-3-[(6-bromo-8-methoxy-2-oxochromen-3-yl)-carbonyl]chromen-2-one] | > 10 | > 10 | – | – | 50 to 100 | – | –
9 | O=C(c1cc2cc3ccccc3cc2oc1=O)c1cc2cc3ccccc3cc2oc1=O [Example 20, [(2-oxobenzo[g]chromen-3-yl)-carbonyl]benzo[g]chromen-2-one] | – | > 10 | – | – | – | > 10 | 25 to 50
10 | Cc1ccc2oc(=O)c(C(=O)c3cc4cc(C)ccc4oc3=O)cc2c1 [Example 22, 6-methyl-3-[(6-methyl-2-oxochromen-3-yl)carbonyl]chromen-2-one] | > 10 | 1 to 10 | – | – | – | – | –
11 | O=C(c1cc2cc(OC(F)(F)F)ccc2oc1=O)c1cc2cc(OC(F)(F)F)ccc2oc1=O [Example 23, 6-trifluoromethoxy-3-[(6-tri-fluoromethoxy-2-oxochromen-3-yl)-carbonyl]chromen-2-one] | > 10 | > 10 | – | – | – | – | –
12 | O=C(c1cc2cc([N+](=O)[O-])cc(Br)c2oc1=O)c1cc2cc([N+](=O)[O-])cc(Br)c2oc1=O [Example 27, 6-nitro-8-bromo-3-[(6-nitro-8-bromo-2-oxocbromen-3-yl)carbonyl]-chromen-2-one] | > 10 | – | – | – | – | – | –
13 | O=C(c1cc2cc(I)cc(I)c2oc1=O)c1cc2cc(I)cc(I)c2oc1=O [Example 29, 6,8-diiodo-3-[(6,8-diiodo-2-oxochromen-3-yl)carbonyl]chromen-2-one] | 0.04 | – | – | – | 10 to 20 | – | –

The next lines start with results.

Row | IC50 [1] [µM] | IC50 [2] [µM] | IC50 [4] [µM] | IC50 [5] [µM] | SMILES | IC50 ([3]; Homo sapiens, DU-145) [µM] | IC50 ([1]; read-out: CDK4 IC50, recombinant human enzyme complex, average of two independent experiments in triplicate) [µM] | IC50 [3] [µM]
14 | > 10 | > 10 | – | – | O=C(c1cc2cc(Br)ccc2oc1=O)c1cc2cc(Br)ccc2oc1=O [Example 1, 6-bromo-3-[(6-bromo-2-oxo-chromen-3-yl)carbonyl]chromen-2-one] | > 100 | – | –
15 | > 10 | > 10 | – | – | COc1ccc2cc(C(=O)c3cc4ccc(OC)cc4oc3=O)c(=O)oc2c1 [Example 2, 7-methoxy-3-[(7-methoxy-2-oxochromen-3-yl)carbonyl]chromen-2-one] | > 100 | – | –
16 | > 10 | > 10 | – | – | CCOc1cccc2cc(C(=O)c3cc4cccc(OCC)c4oc3=O)c(=O)oc12 [Example 4, 8-ethoxy-3-[(8-ethoxy-2-oxochromen-3-yl)carbonyl]chromen-2-one] | > 100 | – | –
17 | > 10 | 1 to 10 | – | – | O=C(c1cc2cc(Cl)ccc2oc1=O)c1cc2cc(Cl)ccc2oc1=O [Example 6, 6-chloro-3-[(6-chloro-2-oxochromen-3-yl)carbonyl]chromen-2-one] | > 100 | – | –
18 | > 10 | > 10 | – | – | O=C(c1cc2cc(F)ccc2oc1=O)c1cc2cc(F)ccc2oc1=O [Example 7, 6-fluoro-3-[(6-fluoro-2-oxochromen-3-yl)carbonyl]chromen-2-one] | > 100 | – | –
19 | 2.5 to 5 | > 10 | – | – | O=C(c1cc2cc(Cl)cc(Cl)c2oc1=O)c1cc2cc(Cl)cc(Cl)c2oc1=O [Example 12, 6,8-dichloro-3-[(6,8-dichloro-2-oxochromen-3-yl)carbonyl]chromen-2-one] | 10 to 25 | – | –
20 | 2.5 to 5 | – | 10 | 0.5 | O=C(c1cc2cc(Br)cc(Br)c2oc1=O)c1cc2cc(Br)cc(Br)c2oc1=O [Example 13, 6,8-dibromo-3-[(6,8-dibromo-2-oxochromen-3-yl)carbonyl]chromen-2-one] | 10 to 25 | – | –
21 | > 10 | > 10 | – | – | COc1ccc(Br)c2cc(C(=O)c3cc4c(Br)ccc(OC)c4oc3=O)c(=O)oc12 [Example 15, 5-bromo-8-methoxy-3-[(5-bromo-8-methoxy-2-oxochromen-3-yl)-carbonyl]chromen-2-one] | 25 to 50 | – | –
22 | > 10 | > 10 | – | – | O=C(c1cc2cccc(O)c2oc1=O)c1cc2cccc(O)c2oc1=O [Example 17, 8-hydroxy-3-[(8-hydroxy-2-oxochromen-3-yl)carbonyl]chromen-2-one] | 25 to 50 | – | –
23 | > 10 | > 10 | – | – | O=C(c1cc2cc(O)ccc2oc1=O)c1cc2cc(O)ccc2oc1=O [Example 18, 6-hydroxy-3-[(6-hydroxy-2-oxochromen-3-yl)carbonyl]chromen-2-one] | > 100 | – | –
24 | > 10 | 1 to 10 | 0.089 | 0.5 | O=C(c1cc2cc(Cl)cc(Br)c2oc1=O)c1cc2cc(Cl)cc(Br)c2oc1=O [Example 19, 6-chloro-8-bromo-3-[(6-chloro-8-bromo-2-oxochromen-3-yl)carbonyl]-chromen-2-one] | 1 to 10 | – | –
25 | > 10 | > 10 | 10 | 0.5 | COc1cccc2oc(=O)c(C(=O)c3cc4c(OC)cccc4oc3=O)cc12 [Example 21, 5-methoxy-3-[(5-methoxy-2-oxochromen-3-yl)carbonyl]chromen-2-one] | 50 to 100 | – | –
26 | > 10 | > 10 | – | – | O=C(c1cc2cccc([N+](=O)[O-])c2oc1=O)c1cc2cccc([N+](=O)[O-])c2oc1=O [Example 24, 8-nitro-3-[(8-nitro-2-oxo-chromen-3-yl)carbonyl]chromen-2-one] | – | – | –
27 | > 10 | > 10 | – | – | O=C(c1cc2cccc(F)c2oc1=O)c1cc2cccc(F)c2oc1=O [Example 26, 8-fluoro-3-[(8-fluoro-2-oxochromen-3-yl)carbonyl]chromen-2-one] | – | – | –
